Legend:
Type in all cases: cell-based
Raji [1] = assay: Inhibition of 12-O-tetradecanoylphorbol 13-acetate-induced Epstein-Barr virus early antigen activation in human Raji cells assessed as EA induction at 10 mol ratio relative to TPA; parameters: scale not given: the % may be the effect or the level left; conditions: human gammaherpesvirus 4
Raji [2] = assay: Inhibition of 12-O-tetradecanoylphorbol 13-acetate-induced Epstein-Barr virus early antigen activation in human Raji cells assessed as EA induction at 100 mol ratio relative to TPA; parameters: scale not given: the % may be the effect or the level left; conditions: human gammaherpesvirus 4
[3] = Cytotoxicity against human Raji cells assessed as cell viability at 1000 molar ratio after 48 hours relative to TPA; conditions: read-out: Activity
Raji [4] = assay: Inhibition of 12-O-tetradecanoylphorbol 13-acetate-induced Epstein-Barr virus early antigen activation in human Raji cells assessed as EA induction at 1000 mol ratio relative to TPA; parameters: scale not given: the % may be the effect or the level left; conditions: human gammaherpesvirus 4
Raji [5] = assay: Inhibition of 12-O-tetradecanoylphorbol 13-acetate-induced Epstein-Barr virus early antigen activation in human Raji cells assessed as EA induction at 500 mol ratio relative to TPA; parameters: scale not given: the % may be the effect or the level left; conditions: human gammaherpesvirus 4

Structure (SMILES)	Activity (Raji [1])	Activity (Raji [2])	viability at 48 h, 1000 molar ratio relative to TPA [3]	Activity (Raji [4])	Activity (Raji [5])
CC1=C(/C=C/C(C)=C/C=C/C(C)=C/C=C/C=C(C)/C=C/C=C(C)/C=C/C2=C(C)CCCC2(C)C)C(C)(C)CCC1 [BETA CAROTENE]	100%	82%	90%	9%	34%
C=C1CC[C@@H]2[C@](C)(CCC[C@]2(C)C(=O)O)[C@H]1C/C=C(\C)C(=O)O	93.4%	74.4%	60%	5%	47.1%
C=C[C@]1(C)C=C2CC[C@@H]3[C@](C)(CCC[C@@]3(C)C(=O)O)[C@H]2CC1 [SANDARACOPIMARIC ACID]	91.9%	70.4%	70%	0%	22.5%
C=C/C(C)=C/C[C@H]1C(=C)CC[C@@H]2[C@]1(C)CCC[C@]2(C)C(=O)O	90.5%	75.3%	60%	4.4%	46.2%
CC(C)c1ccc2c(c1)CC[C@H]1[C@](C)(C(=O)O)CCC[C@]21C [DEHYDROABIETIC ACID]	97.9%	69.8%	70%	2.9%	32.7%
C=C1CC[C@@H]2[C@](C)(CCC[C@]2(C)C(=O)O)[C@H]1C/C=C(\C)C=O	91.4%	68.5%	70%	0%	31.4%

Source: ChEMBL document CHEMBL1137817, “Potential antitumor-promoting diterpenes from the cones of Pinus luchuensis” (J Nat Prod, 2002)
